Patent publication US20240168041A1, “SYSTEMS AND METHODS ENABLING PH[…] TESTING OF PATCH-CLAMP SAMPLES” (priority 2021, published 2024)
“And” between values parts separate entries of the source, which are not always exact repeats. Identical values can stand only once. Like-named read-outs stand apart in the source and are kept apart here.

How the values were obtained:
[1] = biological target: T1, GABAAR in stably expressing HEK cells (Mus musculus, UniProt P22723+P62812+P63137); assay: cell-based
T1 construct: expressed in transfected cells; host or cells: HEK 293 cells
T1 sequence (P62812 28-455): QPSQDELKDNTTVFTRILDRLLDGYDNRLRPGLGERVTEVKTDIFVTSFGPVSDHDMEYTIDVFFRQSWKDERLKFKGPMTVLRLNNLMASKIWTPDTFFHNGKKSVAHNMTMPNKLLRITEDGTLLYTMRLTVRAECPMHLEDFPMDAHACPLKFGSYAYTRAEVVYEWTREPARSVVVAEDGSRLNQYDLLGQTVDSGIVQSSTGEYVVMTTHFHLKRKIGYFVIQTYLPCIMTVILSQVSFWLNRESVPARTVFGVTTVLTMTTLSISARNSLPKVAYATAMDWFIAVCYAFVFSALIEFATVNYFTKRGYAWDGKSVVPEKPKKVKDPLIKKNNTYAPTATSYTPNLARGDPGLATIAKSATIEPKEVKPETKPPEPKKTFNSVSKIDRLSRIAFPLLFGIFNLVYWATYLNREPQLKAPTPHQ
T1 sequence (P63137 25-512 limits assumed): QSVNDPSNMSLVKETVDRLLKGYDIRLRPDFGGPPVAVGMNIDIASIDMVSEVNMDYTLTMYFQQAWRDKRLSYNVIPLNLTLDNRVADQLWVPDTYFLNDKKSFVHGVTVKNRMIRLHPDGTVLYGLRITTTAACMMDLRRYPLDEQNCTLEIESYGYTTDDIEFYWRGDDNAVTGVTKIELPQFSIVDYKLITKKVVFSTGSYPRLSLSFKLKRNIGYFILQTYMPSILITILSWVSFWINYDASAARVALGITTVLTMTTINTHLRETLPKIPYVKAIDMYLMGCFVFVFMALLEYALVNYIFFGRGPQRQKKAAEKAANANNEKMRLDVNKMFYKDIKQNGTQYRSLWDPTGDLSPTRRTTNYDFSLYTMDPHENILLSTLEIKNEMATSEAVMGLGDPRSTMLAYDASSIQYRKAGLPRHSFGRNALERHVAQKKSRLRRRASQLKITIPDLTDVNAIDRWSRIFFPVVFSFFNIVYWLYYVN
T1 sequence (P22723 39-474): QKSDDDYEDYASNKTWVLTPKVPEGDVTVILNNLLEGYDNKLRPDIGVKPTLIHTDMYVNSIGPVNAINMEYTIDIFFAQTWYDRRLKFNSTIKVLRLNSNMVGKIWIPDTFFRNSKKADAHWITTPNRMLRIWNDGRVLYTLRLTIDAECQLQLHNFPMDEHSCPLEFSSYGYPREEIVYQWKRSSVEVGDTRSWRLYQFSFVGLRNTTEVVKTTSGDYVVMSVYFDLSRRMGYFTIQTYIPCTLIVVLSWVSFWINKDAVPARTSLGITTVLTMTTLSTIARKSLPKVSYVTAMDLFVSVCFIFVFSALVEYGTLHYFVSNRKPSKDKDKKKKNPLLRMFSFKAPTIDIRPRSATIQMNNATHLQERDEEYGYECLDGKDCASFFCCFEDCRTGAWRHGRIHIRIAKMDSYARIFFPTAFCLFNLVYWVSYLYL
Description: FIGS. 5A through 5D provides various steps system 500 can perform to achieve a time-constant concentration response of deactivation of a cell receptor exposed to a drug. […] FIGS. 5A through 5D the individual steps in a flowchart illustrating the patcherBotPharma operation, timing, and success rate. After the one-time calibration and cell selection step 502, system 500 loops through and serially records from the selected cells in steps 504 through 514. Quality control measures are in place at steps 506, 508a, 508b, and 510 to terminate the current experiment and continue to the next iteration, as shown in FIG. 5A. System 500 can perform calibration and cell selection 502 manually such that the user selects one or more cells within a biological sample. In some instances, calibration and cell selection 502 can be performed automatically. For instance, calibration can be pre-programed and stored in memory 66 of controller 200. Alternatively, or in addition thereto, calibration can be automatically sensed by a combination of the manipulator assembly 120 and automated control of a microscope.
After quality control measures verify an appropriate seal between the pipette tip 110 and the cell target, system 500 can initiate the experimental protocol at step 512. […] Each phase of each experiment would start with the valves changing to the next set to be tested, with a wait step to allow for the solutions to be primed, followed by the collection of 10 replicates of the intended jump protocol.
(§1) cDNAs for mouse Gabra1, Gabrb2, and the long form of Gabrg2 were subcloned into the pAC156 plasmid, a generous gift from Albert Cheng. The cDNAs were driven by an EF1alpha promoter. A PGK promoter-driven puromycin resistance cassette was also present in pAC156; both cassettes were flanked by piggybac transposon arms. All three plasmids were co-transfected with the mPB piggybac transposase into HEK 293 cells, selected by puromycin, and sorted into single cells. Clones were assayed for Gabra1, Gabrb2, and Gabrg2 expression by immunofluorescence, and one clone was expanded for further study and use in this description herein. Trypsin was used to dissociate the cells and plated on the same coverslips, as mentioned above, 24-72 hours before experimentation (shorter time and less PDL for lifted cell, and the inverse for excised patches).
(§2) Whole-cell voltage-clamp recordings were performed with thin-walled borosilicate glass electrodes (3-6 MΩ, TW150E-4, World Precision Instruments) filled with solution containing (in mM) 110 Cs-gluconate, 30 CsCl, 5 HEPES, 4 NaCl, 0.5 CaCl2, 2 MgCl2, 5 BAPTA, 2 NaATP, 0.3 NaGTP (pH 7.35). The extracellular recording solution contained (in mM) 150 NaCl, 10 HEPES, 3 KCl, 0.5 CaCl2, 1 MgCl2, and 0.01 EDTA (pH 7.4). Whole cell recording from primary cortical neurons (examples showing alternative experiment paradigm in the supplemental) were obtained utilizing an internal solution, containing (in mM) 115 K-gluconate, 20 KCl, 10 HEPES, 2 Mg2ATP, 0.3 NaGTP, and 10 Na2Phosphocreatine (pH 7.35), and external solution stated above but with 1 mM CaCl2. The electrode cleaning solution (2% Tergazyme in water) was made fresh daily. Cleaned electrodes were washed in appropriate internal solution. All solutions were filtered (0.45 μm or 0.22 μm). Responses were recorded using a Multiclamp 700B (Molecular Devices), filtered at 10 kHz (−3 dB), and digitized at 20 kHz.
(§3) Whole-cell rapid solution exchange experiments were analyzed using custom algorithms (Matlab, Mathworks). The desensitization and deactivation time courses were fitted by exponential functions based on receptor type.

[2] = biological target: T2, GABAAR (α1β2γ2 L) in stably transfected HEK cells (Mus musculus, UniProt P22723+P62812+P63137); assay: Rapid agonist application patch-clamp recording of GABAAR responses (patcherBotPharma); format: cell-based; conditions: rapid application of 1 mM GABA for 1 sec
T2 construct: expressed in transfected cells; host or cells: HEK 293 cells
T2 sequence (P62812 28-455): as the sequence (P62812 28-455) above
T2 sequence (P63137 25-512 limits assumed): as the sequence (P63137 25-512 limits assumed) above
T2 sequence (P22723 39-474): as the sequence (P22723 39-474) above
Protocol: (§4) Recordings are from a lifted whole cell (left) and an outside-out patch using a 4 MΩ electrode (right), at −60 mV in 0 mM Mg^2+. […] Recordings are from a lifted whole cell (left, 1 s application) and an outside-out patch (right, 5 ms application).
as §1, §2
as §3, with “type. For NMDAR desensitization and GABAAR deactivation, they were fit by one exponential function,” for “type.”
In this experimental run, the patcherBotPharma was programmed to collect four-phase recordings. During each phase, five technical replicate sweeps were collected, a 10 sec sweep with agonist applied for 0.5 sec. Following each set of recordings, the patch was blown off with high pressure and the open-tip exchange time was determined to validate the electrode positioning.

[3] = biological target: T3, NMDAR (GluN1/GluN2A) in transiently transfected HEK cells (Rattus norvegicus, UniProt P35439+Q00959); assay: Rapid agonist application patch-clamp recording of NMDAR responses (patcherBotPharma); format: cell-based; conditions: rapid application of 1 mM Glutamate for 1 sec; −60 mV
T3 construct: expressed in transfected cells; host or cells: HEK-293 cells (CRL 1573, ATCC); calcium phosphate transient transfection with GFP co-transfected
T3 sequence (Q00959 23-1464, other chains not shown): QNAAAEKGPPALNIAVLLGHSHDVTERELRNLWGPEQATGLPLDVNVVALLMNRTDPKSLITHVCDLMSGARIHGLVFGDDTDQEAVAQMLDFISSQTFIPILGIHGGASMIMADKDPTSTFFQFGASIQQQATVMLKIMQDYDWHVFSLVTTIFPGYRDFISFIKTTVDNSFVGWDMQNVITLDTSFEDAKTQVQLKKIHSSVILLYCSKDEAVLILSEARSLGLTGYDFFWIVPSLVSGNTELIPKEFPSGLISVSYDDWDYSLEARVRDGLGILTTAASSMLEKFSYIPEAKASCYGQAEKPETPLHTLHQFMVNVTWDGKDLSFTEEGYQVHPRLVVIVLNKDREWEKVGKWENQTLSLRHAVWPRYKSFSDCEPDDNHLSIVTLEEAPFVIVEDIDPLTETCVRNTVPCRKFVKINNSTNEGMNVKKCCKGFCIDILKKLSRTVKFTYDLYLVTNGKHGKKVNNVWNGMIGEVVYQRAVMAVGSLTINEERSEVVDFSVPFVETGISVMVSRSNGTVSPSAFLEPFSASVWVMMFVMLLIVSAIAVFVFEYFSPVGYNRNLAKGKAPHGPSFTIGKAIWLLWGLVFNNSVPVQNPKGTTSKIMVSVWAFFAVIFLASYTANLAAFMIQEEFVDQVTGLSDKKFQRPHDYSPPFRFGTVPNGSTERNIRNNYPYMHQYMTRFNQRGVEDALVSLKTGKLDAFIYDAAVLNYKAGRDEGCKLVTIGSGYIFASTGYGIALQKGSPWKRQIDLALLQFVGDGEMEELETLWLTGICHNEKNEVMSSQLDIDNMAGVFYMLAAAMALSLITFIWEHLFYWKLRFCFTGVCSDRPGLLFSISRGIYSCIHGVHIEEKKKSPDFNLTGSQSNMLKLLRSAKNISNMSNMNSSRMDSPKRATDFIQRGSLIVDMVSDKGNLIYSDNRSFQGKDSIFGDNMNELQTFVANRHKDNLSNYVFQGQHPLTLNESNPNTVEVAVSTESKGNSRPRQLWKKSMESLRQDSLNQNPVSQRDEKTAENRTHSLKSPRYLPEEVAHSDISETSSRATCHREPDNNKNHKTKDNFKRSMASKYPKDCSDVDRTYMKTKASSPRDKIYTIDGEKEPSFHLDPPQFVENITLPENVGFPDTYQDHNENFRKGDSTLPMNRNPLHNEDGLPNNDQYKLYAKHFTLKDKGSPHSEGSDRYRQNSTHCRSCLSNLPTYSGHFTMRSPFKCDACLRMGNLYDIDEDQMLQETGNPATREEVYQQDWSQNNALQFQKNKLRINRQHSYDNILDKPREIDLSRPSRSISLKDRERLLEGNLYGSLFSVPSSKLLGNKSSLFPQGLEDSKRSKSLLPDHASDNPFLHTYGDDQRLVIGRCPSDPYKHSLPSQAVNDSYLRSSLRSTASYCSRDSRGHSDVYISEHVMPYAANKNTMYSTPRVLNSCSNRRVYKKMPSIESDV
Protocol: as §4
HEK-293 cells (CRL 1573, ATCC; hereafter HEK cells) and a stable GABAAR-expressing cell line were cultured in DMEM (Cat #10566016, ThermoFisher Scientific) supplemented with 10% fetal bovine serum (FBS), 10 U/ml penicillin, and 10 lag/ml streptomycin and maintained at 5% CO2 in a 37° C. incubator. For use on the electrophysiology rig, heterologous cells were plated on poly-D-Lysine (PDL) coated glass coverslips (0.1-0.5 mg/mL, Warner Instruments). Transiently transfected recombinant receptors were expressed from complementary DNA (cDNA) encoding rat GluN1-1a (hereafter GluN1, U08261) and GluN2A (D13211). Calcium phosphate was used to transiently transfect HEK cells in a 24-well plate with 500 ng of cDNA at a ratio of 1:1:5 (GluN1:GluN2A:GFP). Four hours after transfection, NMDAR antagonists D,L-2amino-5-phosphonovalerate (200 μM, DL-APV) and 7-chlorokynurenic acid (200 μM) were added to the culture medium to decrease the cytotoxic effect of NMDAR expression.
as §2
as §3, with “type. For NMDAR desensitization and GABAAR deactivation, they were fit by one exponential function,” for “type.”
A series of pharmacology experiments were performed on GABAAR and NMDARs where rapid agonist application was applied to excised outside-out patches to assess patcherBotPharma performance on the minimum processes required in an experiment, described in more detail in Table 1).

[4] = biological target: T3, NMDAR (GluN1/GluN2A) in transiently transfected HEK cells; assay: as above; format: cell-based; conditions: rapid application of 1 mM Glutamate for 1 sec; −40 mV
[5] = 1 mM GABA for 0.5 sec, propofol-free GABA Control, concentration set 1
[6] = 1 mM GABA for 0.5 sec, propofol-free GABA Control, concentration set 2
[7] = 0.5 μM PRO, 1 mM GABA for 0.5 sec, set 1
[8] = 1 μM PRO, 1 mM GABA for 0.5 sec, set 2
[9] = 2 μM PRO, 1 mM GABA for 0.5 sec, set 1
[10] = 5 μM PRO, 1 mM GABA for 0.5 sec, set 2
[11] = 10 μM PRO, 1 mM GABA for 0.5 sec, set 1
[12] = 20 μM PRO, 1 mM GABA for 0.5 sec, set 2
[13] = 50 μM PRO, 1 mM GABA for 0.5 sec, set 1
[14] = 100 μM PRO, 1 mM GABA for 0.5 sec, set 2

NCCCC(=O)O [GABA]
Deactivation Tau [1, 5]: 129 ± 11 ms
Desensitization Extent (SS/Peak %) [1, 5]: 39.3 ± 2.0%
Response Peak Amplitude [1, 5]: 133 ± 36 pA
Response Steady State Amplitude [1, 5]: 51.1 ± 12.3 pA
Deactivation Tau [1, 6]: 130 ± 27 ms
Desensitization Extent (SS/Peak %) [1, 6]: 31.8 ± 7.7%
Response Peak Amplitude [1, 6]: 93.6 ± 6.8 pA
Response Steady State Amplitude [1, 6]: 30.5 ± 8.1 pA
Deactivation Tau ([2]; −40 mV): 216 ± 29 ms
Desensitization Extent (SS/Peak %) ([2]; −40 mV): 26.4 ± 1.8%
Desensitization Tau ([2]; −40 mV): 681 ± 130 ms
Response Peak Amplitude ([2]; −40 mV): 586 ± 150 pA
Response Steady State Amplitude ([2]; −40 mV): 170 ± 54 pA
Deactivation Tau ([2]; −60 mV): 133 ± 6 ms
Desensitization Extent (SS/Peak %) ([2]; −60 mV): 24.8 ± 1.1%
Desensitization Tau ([2]; −60 mV): 965 ± 298 ms
Response Peak Amplitude ([2]; −60 mV): 173 ± 48 pA

N[C@@H](CCC(=O)O)C(=O)O [Glutamate, glutamate]
Deactivation Tau [3]: 81.3 ± 18.4 ms
Desensitization Extent (SS/Peak %) [3]: 54.8 ± 6.9%
Desensitization Tau [3]: 984 ± 192 ms
Response Peak Amplitude [3]: 326 ± 180 pA
Response Steady State Amplitude [3]: 215 ± 139 pA
Deactivation Tau [4]: 71.9 ± 11.0 ms
Desensitization Extent (SS/Peak %) [4]: 34.2 ± 6.4%
Desensitization Tau [4]: 388 ± 75 ms
Response Peak Amplitude [4]: 271 ± 104 pA
Response Steady State Amplitude [4]: 130 ± 68 pA

CC(C)c1cccc(C(C)C)c1O [propofol]
Deactivation Tau [1]: 143 ± 25 ms and 129 ± 12 ms
Desensitization Extent (SS/Peak %) [1]: 41.8 ± 1.7% and 25.2 ± 13.5%
EC50 [1]: 11.8 ± 4.6 µM
Deactivation Tau [1, 7]: 116 ± 13 ms
Desensitization Extent (SS/Peak %) [1, 7]: 39.6 ± 1.3%
Response Peak Amplitude [1, 7]: 100 ± 20 pA
Response Steady State Amplitude [1, 7]: 40.4 ± 8.9 pA
Deactivation Tau [1, 8]: 110 ± 15 ms
Desensitization Extent (SS/Peak %) [1, 8]: 34.9 ± 6.7%
Response Peak Amplitude [1, 8]: 72.2 ± 18.0 pA
Response Steady State Amplitude [1, 8]: 24.2 ± 6.6 pA
Deactivation Tau [1, 9]: 128 ± 13 ms
Desensitization Extent (SS/Peak %) [1, 9]: 40.0 ± 1.7%
Response Peak Amplitude [1, 9]: 109 ± 32 pA
Response Steady State Amplitude [1, 9]: 45.6 ± 14.9 pA
Deactivation Tau [1, 10]: 198 ± 29 ms
Desensitization Extent (SS/Peak %) [1, 10]: 30.0 ± 5.1%
Response Peak Amplitude [1, 10]: 37.8 ± 9.1 pA
Response Steady State Amplitude [1, 10]: 11.1 ± 2.4 pA
Deactivation Tau [1, 11]: 208 ± 20 ms
Desensitization Extent (SS/Peak %) [1, 11]: 43.1 ± 2.2%
Response Peak Amplitude [1, 11]: 96.0 ± 25.2 pA
Response Steady State Amplitude [1, 11]: 42.1 ± 11.6 pA
Deactivation Tau [1, 12]: 328 ± 53 ms
Desensitization Extent (SS/Peak %) [1, 12]: 25.2 ± 6.6%
Response Peak Amplitude [1, 12]: 21.5 ± 4.6 pA
Response Steady State Amplitude [1, 12]: 6.1 ± 2.2 pA
Deactivation Tau [1, 13]: 331 ± 21 ms
Desensitization Extent (SS/Peak %) [1, 13]: 33.8 ± 2.7%
Response Peak Amplitude [1, 13]: 63.9 ± 17.8 pA
Response Steady State Amplitude [1, 13]: 23.5 ± 7.4 pA
Deactivation Tau [1, 14]: 415 ± 226 ms
Response Peak Amplitude [1, 14]: 8.9 ± 1.2 pA
Response Steady State Amplitude [1, 14]: 5.8 ± 7.5 pA
